# Tested on: rabbit anti-B. anthracis spore polyclonal IgG antibodies
# Format: binding
Compound,IgG signal detected by glycan arrays (n = 3) Mean,other results
Streptococcus pneumoniae type 23 capsular polysaccharide [Saccharide 35],–,IgG reactivities (Ratio of Sg./bg.) Mean: 12.35; antibody reactivity detected by glycan arrays: positive spots
"[Methyl 2-O-methyl-4,6-dideoxy-4-(3-deoxy-L-glycero-tetronamido)-<-D-mannopyranosyl-(1→2)-bis[4,6-dideoxy-4-(3-deoxy-L-glycero-tetronamido)-<-D-mannopyranosyl-(1→2)]-4,6-dideoxy-4-(3-deoxy-L-glycero-tetronamido)-<-D-mannopyranoside]10-BSA [Saccharide 32]",1.20,–
"CC(=O)N[C@@H](C=O)[C@@H](O)[C@@H](O)[C@H](O)CO [Saccharide 11, N-acetyl-2-amino-2-deoxy-D-galactose]",1.03,–
"Methyl 2-O-methyl-4,6-dideoxy-4-(3-deoxy-L-glycero-tetronamido)-<-D-mannopyranosyl-(1→2)-tetrakis[4,6-dideoxy-4-(3-deoxy-L-glycero-tetronamido)-<-D-mannopyranosyl-(1→2)]-4,6-dideoxy-4-(3-deoxy-L-glycero-tetronamido)-<-D-mannopyranoside [Saccharide 30]",1.67,–
"Methyl 2-O-methyl-4,6-dideoxy-4-(3-deoxy-L-glycero-tetronamido)-<-D-mannopyranosyl-(1→2)-tris[4,6-dideoxy-4-(3-deoxy-L-glycero-tetronamido)-<-D-mannopyranosyl-(1→2)]-4,6-dideoxy-4-(3-deoxy-L-glycero-tetronamido)-<-D-mannopyranoside [Saccharide 29]",1.09,–
"CO[C@H]1O[C@H](CO)[C@H](O)[C@H](O)[C@H]1O[C@@H]1O[C@@H](C)[C@H](O)[C@@H](O)[C@H]1O [Saccharide 21, Methyl <-L-rhamnopyranosyl-(1→2)-<-D-galactopyranoside, reference compound]",1.08,–
"[Methyl 2-O-methyl-4,6-dideoxy-4-(3-deoxy-L-glycero-tetronamido)-<-D-mannopyranosyl-(1→2)-tris[4,6-dideoxy-4-(3-deoxy-L-glycero-tetronamido)-<-D-mannopyranosyl-(1→2)]-4,6-dideoxy-4-(3-deoxy-L-glycero-tetronamido)-<-D-mannopyranoside]10-BSA [Saccharide 33]",1.37,–
"COC(=O)CCCCCO[C@@H]1O[C@@H](C)[C@H](O)[C@@H](O[C@@H]2O[C@@H](C)[C@H](O)[C@@H](O)[C@H]2O)[C@H]1O [Saccharide 16, 5-(Methoxycarbonyl)pentyl α-L-rhamnopyranosyl-(1→3)-α-L-rhamnopyranoside]",1.00,–
"CO[C@H]1O[C@H](C)[C@@H](NC(=O)[C@@H](O)CCO)[C@H](O)[C@@H]1O[C@H]1O[C@H](C)[C@@H](NC(=O)[C@@H](O)CCO)[C@H](O)[C@@H]1O[C@H]1O[C@H](C)[C@@H](NC(=O)[C@@H](O)CCO)[C@H](O)[C@@H]1OC [Saccharide 27, Methyl 2-O-methyl-4,6-dideoxy-4-(3-deoxy-L-glycero-tetronamido)-<-D-mannopyranosyl-(1→2)-4,6-dideoxy-4-(3-deoxy-L-glycero-tetronamido)-<-D-mannopyranosyl-(1→2)-4,6-dideoxy-4-(3-deoxy-L-glycero-tetronamido)-<-D-mannopyranoside]",1.01,–
"O=C[C@H](O)[C@@H](O)[C@H](O)[C@H](O)CO [Saccharide 9, D-Glucose]",1.04,–
"[Methyl 2-O-methyl-4,6-dideoxy-4-(3-deoxy-L-glycero-tetronamido)-<-D-mannopyranosyl-(1→2)-4,6-dideoxy-4-(3-deoxy-L-glycero-tetronamido)-<-D-mannopyranosyl-(1→2)-4,6-dideoxy-4-(3-deoxy-L-glycero-tetronamido)-<-D-mannopyranoside]5-BSA [Saccharide 31]",1.53,–
"COC(=O)CCCCCO[C@@H]1O[C@@H](C)[C@H](O)[C@@H](O)[C@H]1O[C@@H]1O[C@@H](C)[C@H](O)[C@@H](O)[C@H]1O [Saccharide 18, 5-(Methoxycarbonyl)pentyl α-L-rhamnopyranosyl-(1→2)-α-L-rhamnopyranoside]",1.26,–
"COC(=O)CCCCCO[C@@H]1O[C@@H](C)[C@H](O)[C@@H](O)[C@H]1O [Saccharide 14, 5-(Methoxycarbonyl)pentyl α-L-rhamnopyranoside]",0.97,–
"O=C[C@H](O)[C@@H](O)[C@@H](O)CO [Saccharide 12, L-Arabinose]",1.03,–
"CO[C@H]1O[C@H](CO)[C@H](O)[C@H](O)[C@H]1O[C@@H]1O[C@@H](C)[C@H](O)[C@@H](O[C@@H]2O[C@@H](C)[C@H](O)[C@@H](O[C@H]3O[C@H](CO)[C@@H](O)[C@H](O)[C@H]3NC(C)=O)[C@H]2O)[C@H]1O [Saccharide 22, Methyl 2-acetamido-2-deoxy-<-D-glucopyranosyl-(1→3)-<-L-rhamnopyranosyl-(1→3)-<-L-rhamnopyranosyl-(1→2)-<-D-galactopyranoside, reference compound]",0.95,–
"CO[C@H]1O[C@H](CO)[C@@H](O)[C@H](O[C@H]2O[C@H](CO)[C@H](O)[C@H](O)[C@H]2O[C@@H]2O[C@@H](C)[C@H](O)[C@@H](O[C@@H]3O[C@@H](C)[C@H](O)[C@@H](O)[C@H]3O)[C@H]2O)[C@H]1NC(C)=O [Saccharide 26, Methyl <-L-rhamnopyranosyl-(1→3)-<-L-rhamnopyranosyl-(1→2)-<-D-galactopyranosyl-(1→3)-2-acetamido-2-deoxy-<-D-glucopyranoside]",1.01,–
"O=C[C@@H](O)[C@@H](O)[C@H](O)[C@H](O)CO [Saccharide 10, D-Mannose]",1.03,–
"COC(=O)CCCCCO[C@H]1O[C@@H](C)[C@H](O)[C@@H](O)[C@H]1O[C@@H]1O[C@@H](C)[C@H](O)[C@@H](O[C@@H]2O[C@@H](C)[C@H](O)[C@@H](O)[C@H]2O)[C@H]1O [Saccharide 20, 5-(Methoxycarbonyl)pentyl α-L-rhamnopyranosyl-(1→3)-α-L-rhamnopyranosyl-(1→2)-β-L-rhamnopyranoside]",0.95,–
"CO[C@H]1O[C@H](CO)[C@H](O)[C@H](O)[C@H]1O[C@@H]1O[C@@H](C)[C@H](O)[C@@H](O[C@@H]2O[C@@H](C)[C@H](O)[C@@H](O)[C@H]2O)[C@H]1O [Saccharide 25, Methyl <-L-rhamnopyranosyl-(1→3)-<-L-rhamnopyranosyl-(1→2)-<-D-galactopyranoside, reference compound]",1.02,–
"COC(=O)CCCCCO[C@H]1O[C@@H](C)[C@H](O)[C@@H](O)[C@H]1O[C@@H]1O[C@@H](C)[C@H](O)[C@@H](O)[C@H]1O [Saccharide 19, 5-(Methoxycarbonyl)pentyl α-L-rhamnopyranosyl-(1→2)-β-L-rhamnopyranoside]",0.98,–
"C[C@@H](O)[C@H](O)[C@H](O)[C@@H](O)C=O [Saccharide 7, D-Fucose]",1.88,–
